Experimental findings from US20060270631A1, “Methods for the treatment and prevention of angiogenic diseases” (priority 2005, published 2006) are described below.

Values joined by “and” are separate entries in the source; they are usually repeats but may differ in a detail not shown here. Equal entries are not always repeated.

Usually AUC(0-inf) stands for total exposure, with the tail of the curve extrapolated. Low readings indicate low exposure, high ones high exposure. A word on the Cmax: it is the highest concentration seen after dosing. For orientation: Tmax means the time from dosing to the highest level. In general, half-life refers to the time in which the quantity being followed falls by half. A higher half-life goes with slow decline. As a reminder, the solubility is the concentration that dissolves in the medium under given conditions.

One data set is described as follows: Pharmacokinetics in mice. The data set is classed as in vivo, mouse. As to conditions: for AUC(0-inf) / Cmax / Tmax / half-life: female, Swiss-Webster, mouse, whole blood, mice. As for the experimental part: Mice were anesthetized and blood was removed by cardiac puncture at time points ranging from 1 minute to 8 hours. […] Control blood samples were spiked with known amounts of internal standard and analyte to identify compound-specific peaks and to develop standard curves for quantification. Pharmacokinetic parameters were calculated using the WINNONLIN analysis software package (Pharsight).

The next data set is described as follows: physchem. To be noted: aqueous with cosolvent or surfactant or cyclodextrin.
For data set [1], the system named is VEGF-induced vascular permeability. The data set can be described thus: VEGF-induced vascular leakage (Miles assay) in nude mice. The data set is classed as in vivo, mouse. As to conditions: FIG. 7B.
The next data set deals with male Lewis rats. The data set can be described thus: Adjuvant-Induced Arthritis model in rats. The data set is classed as in vivo, rat. As to conditions: Day 10. As for the experimental part:
FIG. 11. Effects of ABC294640 on disease progression in the adjuvant-induced arthritis model in rats. Male Lewis rats were injected subcutaneously with Mycobacterium butyricum, and symptoms of immune reactivity were present after 2 weeks. Responsive rats were randomized into treatment groups (n=8 per group), and received oral daily doses of: solvent alone (0.375% Tween-80); 100 mg/kg ABC294640; 35 mg/kg ABC294640; or 5 mg/kg ABC294640, or intraperitoneal injections of indomethacin (5 mg/kg) every other day. The severity of disease in each animal was quantified by measurement of the hind paw thickness. Panel A. Time course of hind paw arthritic response. Panel B. Final day (Day 10) hind paw thickness measurements. Panel C. Change in paw thickness of respective group versus non-arthritic rats (naive) at Day 10. *,p<0.05; ***, p<0.001 versus solvent alone group.
Adjuvant-induced arthritis is another widely used assay that recapitulates many features of human rheumatoid arthritis, and so is useful in the evaluation of new drug candidates. Age- and weight-matched male Lewis rats (150-170 g) were injected subcutaneously in the tail with 1 mg of Mycobacterium butyricum (Difco, killed dried) suspended in 0.1 ml of light mineral oil. Symptoms of immune reactivity were present after 2 weeks. Responsive rats were randomized into treatment groups, and received oral daily doses (1 ml) of: solvent alone (0.375% Tween-80); 100 mg/kg ABC294640; 35 mg/kg ABC294640; or 5 mg/kg ABC294640, or intraperitoneal injections of indomethacin (5 mg/kg) every other day as a positive control. The severity of disease in each animal was quantified by measurement of the hind paw thickness. As above, a reduction of 30% or greater was considered to be an indication of anti-inflammatory activity in this model.

For data set [2], the system named is female Swiss-Webster mice. To be noted: mouse, in vivo.
Experimental: (§1) The compounds are soluble to at least 15 mg/ml in 50% dimethylsulfoxide:50% phosphate-buffered saline (DMSO:PBS) for intraperitoneal (IP) administration or Polyethylene glycol-400 (PEG400) for oral dosing.
The next data set concerns female DBA/1 mice. The data set can be described thus: Collagen-Induced Arthritis (CIA) model in mice. Format: in vivo, mouse. To be noted: 100 mg/kg orally, Day 12.
The subject of data set [3] is JC murine mammary adenocarcinoma. The data set can be described thus: JC mammary adenocarcinoma syngenic tumor model in Balb/C mice. As for the experimental part: FIG. 12. […] Balb/c female mice were injected subcutaneously with JC cells suspended in PBS. […] Whole body weight and tumor volume measurement were performed for up to 18 days. *p<0.05. Inset: Averaged body weights of mice from each group during course of study.
FIG. 13. […] Balb/c female mice were injected s.c. with JC cells suspended in PBS.
We determined the antitumor activity of representative SK inhibitors in a syngenic mouse tumor model that uses a transformed murine mammary adenocarcinoma cell line (JC, ATCC Number CRL-2116) and Balb/C mice (Charles River) (Lee et al., Oncol Res 14: 49 (2003)). Animals were housed under 12 hour light/dark cycles, with food and water provided ad libitum. Tumor cells (1×10^6) were implanted subcutaneously, and tumor volume was calculated using the equation: (L×W^2)/2. Upon detection of tumors, mice were randomized into treatment groups.

Data set [4] deals with diabetic Sprague-Dawley rats. The data set can be described thus: Retinal vascular permeability in streptozotocin-diabetic rats. The data set is classed as in vivo, rat. To be noted: 25 or 75 mg/kg IP, 5 days per week, Day 45 to Day 87; inner plexiform and outer nuclear layers. As for the experimental part: FIG. 9. Effects of ABC 294640 on retinal vascular permeability in diabetic rats. From Day 45 through Day 87, Control (open bars) and Diabetic rats were treated with solvent (shaded bars) or ABC294640 at 25 mg/kg (horizontal-hatched bars) or 75 mg/kg (cross-hatched bars). On Day 87, retinal leakage in each animal was measured. Values represent the mean±sd for 3-5 rats per group.
Male Sprague-Dawley rats weighing 150-175 g were used. Diabetes was produced by intraperitoneal injection of streptozotocin (65 mg/kg in citrate buffer) after overnight fasting. Sham-injected non-diabetic animals were also carried as controls. Blood glucose was measured three days post-injection and animals with blood glucose over 250 mg/dL were used as diabetic rats for the study. Blood glucose levels and body weights were monitored weekly throughout the study. On Day 45, retinal vascular permeability was measured in a group of control and diabetic rats (Antonetti et al., Diabetes 47: 1953 (1998), Barber et al., Invest Ophthalmol Vis Sci 46: 2210 (2005)). […] Sections were dewaxed and viewed with an Olympus OM-2 fluorescence microscope fitted with a Sony CLD video camera. Fluorescence intensities of digital images were measured using Leica Confocal Software (Version 2.61, build 1538, LCS Lite, 2004). […]

A further data set has as its system sphingosine kinase (SK). The data set can be described thus: Screening assay for inhibitors of SK. The data set is classed as biochemical, human. As to conditions: library screen. The text has this: An assay for screening for inhibitors of SK has been established (French et al., Cancer Res 63: 5962 (2003)). […] Representative active compounds from four chemotypes of SK inhibitors, designated herein as Compounds I-IV, are shown in FIG. 1.

The test system of the next data set is endogenous SK. The data set can be described thus: Cellular SK activity in bovine retinal endothelial cells. Format: cell-based. As to conditions: 4 hours. As for the experimental part: FIG. 3. Inhibition of cellular SK activity in RECs. Bovine retinal endothelial cells were incubated with 20 μM dimethylsphingosine (DMS) or 25 μg/mL Compound I, Compound II or Compound V (approximately 80 μM for each compound) for 4 hours before the addition of 0.4 μCi of [^3H]sphingosine. After 15 minutes, cells were lysed and extracted with chloroform: methanol. The total amounts of [^3H]sphingosine in the organic phase and [^3H]S1P in the aqueous phase were then determined. Values represent the mean±SD of duplicate samples in a typical experiment.
Cellular S1P formation assay. Cells were grown to confluency in 24-well tissue culture plates and serum-starved for 24 hours as described above. Cells were then treated with 1% DMSO (as the drug vehicle), 20 μM dimethylsphingosine, or the indicated concentration of an SK inhibitor for 4 hours. The cells were then incubated with [^3H]sphingosine for 15 minutes, and the formation of [^3H]S1P was measured as previously described (French et al., Cancer Res 63: 5962 (2003)). In some assays, the cells were serum-starved for 24 hours and then treated with VEGF (50 ng/mL) alone or in the presence of an SK inhibitor for an additional 12 hours. [^3 H]Sphingosine was then added for 15 minutes, and its conversion to [^3H]S1P was measured as indicated above.
A cell-based assay in which the phosphorylation of exogenously added [^3H]sphingosine to [^3H]S1P by endogenous SK can be quantified (French et al., Cancer Res 63: 5962 (2003)) was used to evaluate the effects of test compounds on the activity of SK in intact cells. In this assay, cells are incubated with [^3 H]sphingosine for an appropriate period of time, and then [^3H]sphingosine and [^3H]S1P (formed by endogenous SK activity) are separated by extraction and levels of both species are determined by scintillation counting. We have used a number of cell lines in this assay to confirm that the SK inhibitors are active in multiple intact cell systems. For example, human umbilical vein endothelial cells (HUVECs) are commonly used as a model of human vasculature. […] Similarly, the enzymatic activity of SK in bovine RECs, and its sensitivity to SK inhibitors were assessed. […] Each of inhibitors of SK (Compound I, Compound II and Compound V) was also active against the endogenous SK activity in the bovine RECs.

Experimental for physchem: as §1

As to `O=C(NCc1ccncc1)C12CC3CC(C1)CC(c1ccc(Cl)cc1)(C3)C2` [ABC294640], the “blood levels versus IC50 for inhibition of SK activity” value in the data set “Pharmacokinetics in mice” (during the entire study (up to 8 hours)) is “exceeded the IC50”. Moreover, in “Pharmacokinetics in mice” (IV 50 mg/kg), the AUC(0-inf) was 56900 ng·h/mL and 137 µM·h; the maximum concentration (Cmax) is 31100 ng/mL and 74 µM; the Tmax stood at 0 h; the half-life is 1.4 h. Moreover, in “Pharmacokinetics in mice” (Oral 50 mg/kg), the AUC(0-inf) is 37500 ng·h/mL and 90.1 µM·h; the Cmax was 8000 ng/mL and 19 µM; the Tmax came out at 0.25 h; the half-life was 4.5 h. For the same molecule, the solubility in the data set “physchem” was ≥ 15 mg/mL. Besides, the “VEGF-promoted dye leakage into mouse skin” value in data set [1] (75 mg/kg intraperitoneal) was “suppressed”. For the same molecule, the “VEGF-promoted dye leakage into mouse skin” value in data set [1] (100 mg/kg oral gavage) is on record as “suppressed”. Also, in the data set on male Lewis rats (5 mg/kg oral daily), the “reduction in the arthritic response (hind paw thickness)” value (“reduction in the arthritic response” below) is recorded as 13%. Further, the “reduction in the arthritic response” value with male Lewis rats (35 mg/kg oral daily) was determined as 42%. In the data set with male Lewis rats (100 mg/kg oral daily), the “reduction in the arthritic response” value is 76%. The same molecule gave a nontoxic dose in [2] of 1000 mg/kg. Besides, in [2] (ip), the “dose with no immediate or delayed toxicity, acute” value is “at least 50 mg/kg”. The “dose without noticeable toxicity” value in [2] (po) was “at least 100 mg/kg”. In addition, in the data set on female DBA/1 mice (6 days per week), the “reduction in clinical score versus vehicle” value was determined as 67% and the “reduction in the increase in hind paw thickness versus vehicle” value turned out to be 90%. The “histologic damage of tibiotarsal joints” value in the data set on female DBA/1 mice is listed as “significantly reduced”. Further, in data set [3] (100 mg/kg orally on odd days, PEG400), the “inhibition of tumor growth” value came to 69%. Moreover, the “therapeutic index (nontoxic dose/antitumor activity)” value in [3] (female, Balb/c, mouse, in vivo) is reported as “greater than 30”. Also, in data set [3] (mouse, in vivo), the “toxicity to the tumor-bearing mice” value was “without toxicity”. In data set [3] (oral, odd days, dose-response, FIG. 13), the “EC50 for inhibition of tumor growth” value is “approximately 35 mg/kg”. For the same molecule, in data set [4], the “FITC-BSA leakage into the retina versus untreated diabetic rats” value is listed as “substantially reduced”. Moreover, the “inhibition of SK” value in the data set on sphingosine kinase (SK) is reported as “inhibit SK”.

Regarding `CCCCCCCCCCCCC/C=C/[C@@H](O)[C@H](CO)N(C)C` [DMS, dimethylsphingosine, reference compound], the “endogenous SK activity in bovine RECs” value in the data set on endogenous SK (20 μM, positive control) is “inhibition of SK”.

In the case of `O=C(NN=Cc1c(O)ccc2ccccc12)c1cc(-c2ccc3ccccc3c2)n[nH]1` [Compound I], the “endogenous SK activity in bovine RECs” value in the data set on endogenous SK (25 μg/mL (approximately 80 μM)) is recorded as “active”.

For `O=C1C(=Cc2ccc(O)c(O)c2)Oc2ccccc21` [Compound V], the “endogenous SK activity in bovine RECs” value with endogenous SK (25 μg/mL (approximately 80 μM)) was “active”.
